The test system of data set [1] is Rattus norvegicus. The experiment in a line: Tested in vivo for antidiuretic potency injected intraperitoneally in rats under ethanol anesthesia. The data set is classed as ADME, organism-based, Urine. The settings on record: ip.
Data set [2] can be described thus: In vivo antidiuretic antagonistic activity expressed as negative logarithm of the effective dose divided by the estimated volume of distribution (67 mL/kg). The data set is classed as ADME, organism-based. The following applies: Urine; read-out: pA2 (converted).
Data set [3] has as its system Rattus norvegicus. Description: In vivo anti-vasopressor antagonistic activity expressed as negative logarithm of the effective dose divided by the estimated volume of distribution (67 mL/kg). The data set is classed as ADME, organism-based. The following applies: read-out: pA2 (converted).
The subject of data set [4] is Rattus norvegicus. The experiment in a line: Tested in vivo for anti-vasopressor potency injected intraperitoneally in phenoxybenzamine-treated rats under urethane anesthesia. The data set is classed as functional.

Starred links: 1 amine or outer side, 2 acyl side, 3 side chain; linkers in the order of their positions; H or OH if unused. Positions of bridges follow the written chain, without caps; N, C: chain ends. Non-standard residues stand in square brackets, D forms with d. Residues, ends and D or L forms follow the SMILES beside them. *: point of attachment. X1 = O=C(CC1(S[*:2])CCCCC1)[*:1]; iPr = CC(C)*

The molecule `CCCOc1ccc(C[C@@H]2NC(=O)CC3(CCCCC3)SSC[C@@H](C(=O)N3CCC[C@H]3C(=O)N[C@@H](CCCN=C(N)N)C(=O)NCC(N)=O)NC(=O)[C@H](CC(N)=O)NC(=O)[C@H](C(C)C)NC(=O)[C@H](Cc3ccccc3)NC2=O)cc1` [listing 1 of 2 here] yielded an ED in the data set with Rattus norvegicus [1] of 3.5 nM/kg. In addition, the values for the Kb (in data set [2]; in the data set with Rattus norvegicus [3]) were 51.3 nM and 6.03 nM, respectively.
Take `CCCOc1ccc(C[C@@H]2NC(=O)CC3(CCCCC3)SSC[C@@H](C(=O)N3CCC[C@H]3C(=O)N[C@@H](CCCN=C(N)N)C(=O)NCC(N)=O)NC(=O)[C@H](CC(N)=O)NC(=O)[C@H](C(C)C)NC(=O)[C@H](Cc3ccccc3)NC2=O)cc1` [listing 2 of 2 here]: the ED in the data set on Rattus norvegicus [4] came to 0.4 nM/kg.
Turning to `CCCOc1ccc(C[C@@H]2NC(=O)CC3(CCCCC3)SSC[C@@H](C(=O)N3CCC[C@H]3C(=O)N[C@H](CCCN=C(N)N)C(=O)NCC(N)=O)NC(=O)[C@H](CC(N)=O)NC(=O)[C@H](C(C)C)NC(=O)[C@H](Cc3ccccc3)NC2=O)cc1` [listing 1 of 2 here], the ED in the data set with Rattus norvegicus [1] was found to be 14 nM/kg. In addition, the Kb is 214 nM in data set [2] and 13.8 nM in the data set with Rattus norvegicus [3].
`CCCOc1ccc(C[C@@H]2NC(=O)CC3(CCCCC3)SSC[C@@H](C(=O)N3CCC[C@H]3C(=O)N[C@H](CCCN=C(N)N)C(=O)NCC(N)=O)NC(=O)[C@H](CC(N)=O)NC(=O)[C@H](C(C)C)NC(=O)[C@H](Cc3ccccc3)NC2=O)cc1` [listing 2 of 2 here]: the ED with Rattus norvegicus [4] turned out to be 1.1 nM/kg.
Take `CCOc1ccc(C[C@@H]2NC(=O)CC3(CCCCC3)SSC[C@@H](C(=O)N3CCC[C@H]3C(=O)N[C@@H](CCCN=C(N)N)C(=O)NCC(N)=O)NC(=O)[C@H](CC(N)=O)NC(=O)[C@H](C(C)C)NC(=O)[C@H](Cc3ccccc3)NC2=O)cc1` (Y(Et)FVNCPRG-NH2; linker N-5 via X1) [listing 1 of 2 here]: in the data set on Rattus norvegicus [1], the ED was 1.9 nM/kg. The Kb in data set [2] was 26.9 nM; with Rattus norvegicus [3] it was 6.92 nM.
In the case of `CCOc1ccc(C[C@@H]2NC(=O)CC3(CCCCC3)SSC[C@@H](C(=O)N3CCC[C@H]3C(=O)N[C@@H](CCCN=C(N)N)C(=O)NCC(N)=O)NC(=O)[C@H](CC(N)=O)NC(=O)[C@H](C(C)C)NC(=O)[C@H](Cc3ccccc3)NC2=O)cc1` (Y(Et)FVNCPRG-NH2; linker N-5 via X1) [listing 2 of 2 here], in the data set on Rattus norvegicus [4], the ED turned out to be 0.49 nM/kg.
`CCOc1ccc(C[C@@H]2NC(=O)CC3(CCCCC3)SSC[C@@H](C(=O)N3CCC[C@H]3C(=O)N[C@H](CCCN=C(N)N)C(=O)NCC(N)=O)NC(=O)[C@H](CC(N)=O)NC(=O)[C@H](C(C)C)NC(=O)[C@H](Cc3ccccc3)NC2=O)cc1` (Y(Et)FVNCP[dR]G-NH2; linker N-5 via X1) [listing 1 of 2 here] came in with an ED in the data set on Rattus norvegicus [1] of 5.7 nM/kg. The Kb in data set [2] is 79.4 nM.
`CCOc1ccc(C[C@@H]2NC(=O)CC3(CCCCC3)SSC[C@@H](C(=O)N3CCC[C@H]3C(=O)N[C@H](CCCN=C(N)N)C(=O)NCC(N)=O)NC(=O)[C@H](CC(N)=O)NC(=O)[C@H](C(C)C)NC(=O)[C@H](Cc3ccccc3)NC2=O)cc1` (Y(Et)FVNCP[dR]G-NH2; linker N-5 via X1) [listing 2 of 2 here] had an ED in the data set with Rattus norvegicus [4] of 0.34 nM/kg.
For `COc1ccc(C[C@@H]2NC(=O)CC3(CCCCC3)SSC[C@@H](C(=O)N3CCC[C@H]3C(=O)N[C@@H](CCCN=C(N)N)C(=O)NCC(N)=O)NC(=O)[C@H](CC(N)=O)NC(=O)[C@H](C(C)C)NC(=O)[C@H](Cc3ccccc3)NC2=O)cc1` (Y(Me)FVNCPRG-NH2; linker N-5 via X1) [listing 1 of 2 here], the ED in the data set with Rattus norvegicus [1] turned out to be 3.1 nM/kg. The Kb was 44.7 nM in data set [2] and 4.79 nM with Rattus norvegicus [3].
With `COc1ccc(C[C@@H]2NC(=O)CC3(CCCCC3)SSC[C@@H](C(=O)N3CCC[C@H]3C(=O)N[C@@H](CCCN=C(N)N)C(=O)NCC(N)=O)NC(=O)[C@H](CC(N)=O)NC(=O)[C@H](C(C)C)NC(=O)[C@H](Cc3ccccc3)NC2=O)cc1` (Y(Me)FVNCPRG-NH2; linker N-5 via X1) [listing 2 of 2 here], the ED in the data set on Rattus norvegicus [4] was determined as 0.29 nM/kg.
For the molecule `COc1ccc(C[C@@H]2NC(=O)CC3(CCCCC3)SSC[C@@H](C(=O)N3CCC[C@H]3C(=O)N[C@H](CCCN=C(N)N)C(=O)NCC(N)=O)NC(=O)[C@H](CC(N)=O)NC(=O)[C@H](C(C)C)NC(=O)[C@H](Cc3ccccc3)NC2=O)cc1` (Y(Me)FVNCP[dR]G-NH2; linker N-5 via X1) [listing 1 of 2 here], the ED in the data set on Rattus norvegicus [1] came out at 15 nM/kg. In addition, the Kb was 209 nM in data set [2] and 3.63 nM in the data set on Rattus norvegicus [3].
Molecule `COc1ccc(C[C@@H]2NC(=O)CC3(CCCCC3)SSC[C@@H](C(=O)N3CCC[C@H]3C(=O)N[C@H](CCCN=C(N)N)C(=O)NCC(N)=O)NC(=O)[C@H](CC(N)=O)NC(=O)[C@H](C(C)C)NC(=O)[C@H](Cc3ccccc3)NC2=O)cc1` (Y(Me)FVNCP[dR]G-NH2; linker N-5 via X1) [listing 2 of 2 here] came in with an ED in the data set on Rattus norvegicus [4] of 0.28 nM/kg.
As for `CC(C)Oc1ccc(C[C@@H]2NC(=O)CC3(CCCCC3)SSC[C@@H](C(=O)N3CCC[C@H]3C(=O)N[C@@H](CCCN=C(N)N)C(=O)NCC(N)=O)NC(=O)[C@H](CC(N)=O)NC(=O)[C@H](C(C)C)NC(=O)[C@H](Cc3ccccc3)NC2=O)cc1` (Y(iPr)FVNCPRG-NH2; linker N-5 via X1) [listing 1 of 2 here], the ED with Rattus norvegicus [1] is 3.6 nM/kg. For the same molecule, the Kb in data set [2] was 47.9 nM; in the data set with Rattus norvegicus [3], 4.37 nM.
In the data set with Rattus norvegicus [4], `CC(C)Oc1ccc(C[C@@H]2NC(=O)CC3(CCCCC3)SSC[C@@H](C(=O)N3CCC[C@H]3C(=O)N[C@@H](CCCN=C(N)N)C(=O)NCC(N)=O)NC(=O)[C@H](CC(N)=O)NC(=O)[C@H](C(C)C)NC(=O)[C@H](Cc3ccccc3)NC2=O)cc1` (Y(iPr)FVNCPRG-NH2; linker N-5 via X1) [listing 2 of 2 here] returned an ED of 0.31 nM/kg.
`CC(C)Oc1ccc(C[C@@H]2NC(=O)CC3(CCCCC3)SSC[C@@H](C(=O)N3CCC[C@H]3C(=O)N[C@H](CCCN=C(N)N)C(=O)NCC(N)=O)NC(=O)[C@H](CC(N)=O)NC(=O)[C@H](C(C)C)NC(=O)[C@H](Cc3ccccc3)NC2=O)cc1` (Y(iPr)FVNCP[dR]G-NH2; linker N-5 via X1) [listing 1 of 2 here] displayed an ED in the data set on Rattus norvegicus [1] of 8.5 nM/kg. Moreover, the Kb in data set [2] is 132 nM; with Rattus norvegicus [3] it was 3.89 nM.
Molecule `CC(C)Oc1ccc(C[C@@H]2NC(=O)CC3(CCCCC3)SSC[C@@H](C(=O)N3CCC[C@H]3C(=O)N[C@H](CCCN=C(N)N)C(=O)NCC(N)=O)NC(=O)[C@H](CC(N)=O)NC(=O)[C@H](C(C)C)NC(=O)[C@H](Cc3ccccc3)NC2=O)cc1` (Y(iPr)FVNCP[dR]G-NH2; linker N-5 via X1) [listing 2 of 2 here] yielded an ED in the data set with Rattus norvegicus [4] of 0.28 nM/kg.
